# Measured values from ChEMBL document CHEMBL3400138, “Synthesis of 3-azabicyclo[3.2.2]nonanes and their antiprotozoal activities” (Bioorg Med Chem Lett, 2015).
# Calls of active or inactive are those of the source. No cut-off for these calls is given here.
# Tests used:
# Plasmodium berghei [1] = test: Antiplasmodial activity against GFP-transfected Plasmodium berghei ANKA infected in NMRI mouse assessed as mean survival day at 10 mg/kg, ip administered 4, 24, 48 and 72 hrs post infection (reference value: 4 days); format: functional; conditions: route intraperitoneal
# [2] = Selectivity index, ratio of CC50 for rat L6 cells to IC50 for chloroquine and pyrimethamine resistant Plasmodium falciparum K1; format: functional
# Plasmodium berghei [3] = test: Antiplasmodial activity against GFP-transfected Plasmodium berghei ANKA infected in NMRI mouse assessed as reduction in parasitemia at 200 mg/kg, po administered 24 hrs post infection by FACS analysis; format: functional
# [4] = tested on: Mycolicibacterium smegmatis; test: Antimycobacterial activity against Mycobacterium smegmatis ATCC 14468 assessed as inhibition of bacterial growth after 72 hrs by MTT dye based microbroth dilution assay; format: functional; conditions: ATCC 14468, 72 h
# Bacillus subtilis = test: Antibacterial activity against Bacillus subtilis ATCC 6051 at 100 ug after 24 hrs; format: functional, organism-based
# Plasmodium berghei [5] = test: Antiplasmodial activity against GFP-transfected Plasmodium berghei ANKA infected in NMRI mouse assessed as mean survival day at 20 mg/kg, ip administered 4, 24, 48 and 72 hrs post infection (reference value: 4 days); format: functional; conditions: route intraperitoneal
# Trypanosoma = test: Antiparasitic activity against Trypanosoma sp.; format: functional, organism-based
# Plasmodium berghei [6] = test: Antiplasmodial activity against GFP-transfected Plasmodium berghei ANKA infected in NMRI mouse assessed as mean survival day at 50 mg/kg, ip administered 4, 24, 48 and 72 hrs post infection (reference value: 4 to 6 days); format: functional; conditions: route intraperitoneal
# [7] = target: Voltage-gated inwardly rectifying potassium channel KCNH2 (Homo sapiens, UniProt Q12809); test: Inhibition of human ERG expressed in HEK293 cells assessed as reduction in tail current at membrane potential of +20 mV; format: cell-based
# Plasmodium berghei [8] = test: Antiplasmodial activity against GFP-transfected Plasmodium berghei ANKA infected in NMRI mouse assessed as reduction in parasitemia administered intraperitoneally 4, 24, 48 and 72 hrs post infection by FACS analysis; format: functional
# Plasmodium falciparum = test: Antiplasmodial activity against chloroquine and pyrimethamine resistant Plasmodium falciparum K1 infected in human red blood cells assessed as reduction in parasite viability after 48 hrs by [3H]-hypoxanthine incorporation assay; format: functional, organism-based
# Plasmodium berghei [9] = test: Antiplasmodial activity against GFP-transfected Plasmodium berghei ANKA infected in NMRI mouse assessed as reduction in parasitemia at 10 mg/kg, ip administered 4, 24, 48 and 72 hrs post infection by FACS analysis; format: functional; conditions: route intraperitoneal
# [10] = tested on: Staphylococcus epidermidis; test: Antibacterial activity against Staphylococcus epidermidis ATCC 12228 at 100 ug after 24 hrs; format: functional, organism-based
# Staphylococcus aureus = test: Antibacterial activity against Staphylococcus aureus ATCC 25923 at 100 ug after 24 hrs; format: functional
# Plasmodium berghei [11] = test: Antiplasmodial activity against GFP-transfected Plasmodium berghei ANKA infected in NMRI mouse assessed as reduction in parasitemia at 100 mg/kg, po administered 24 hrs post infection by FACS analysis; format: functional
# Plasmodium berghei [12] = test: Antiplasmodial activity against GFP-transfected Plasmodium berghei ANKA infected in NMRI mouse assessed as reduction in parasitemia at 20 mg/kg, ip administered 4, 24, 48 and 72 hrs post infection by FACS analysis; format: functional; conditions: route intraperitoneal
# Proteus mirabilis = test: Antibacterial activity against Proteus mirabilis ATCC 14153 at 100 ug after 24 hrs; format: functional; conditions: ATCC 14153, 24 h, read-out: DIZ
# Enterococcus faecalis = test: Antibacterial activity against Enterococcus faecalis ATCC 14506 at 100 ug after 24 hrs; format: functional
# Enterococcus faecium = test: Antibacterial activity against Enterococcus faecium ATCC 6057 at 100 ug after 24 hrs; format: functional; conditions: ATCC 6057, 24 h, read-out: DIZ
# Klebsiella oxytoca = test: Antibacterial activity against Klebsiella oxytoca ATCC 8724 at 100 ug after 24 hrs; format: functional, organism-based
# [13] = Selectivity index, ratio of CC50 for rat L6 cells to IC50 for Trypanosoma brucei rhodesiense STIB900; format: functional
# [14] = Half life in rat at 10 mg/kg, iv; format: ADME, organism-based; parameters: dose 10 mg/kg, route intravenous; conditions: in vivo
# Plasmodium berghei [15] = test: Antiplasmodial activity against orally dosed GFP-transfected Plasmodium berghei ANKA infected in NMRI mouse assessed as reduction in parasitemia by FACS analysis; format: functional
# Plasmodium berghei [16] = test: Antiplasmodial activity against GFP-transfected Plasmodium berghei ANKA infected in NMRI mouse assessed as reduction in parasitemia at 100 mg/kg, po administered 4, 24, 48 and 72 hrs post infection by FACS analysis; format: functional
# hERG (KCNH2) [17] = target: T1, hERG (KCNH2) (Homo sapiens, UniProt Q12809); test: Inhibition of human ERG expressed in HEK293 cells assessed as reduction in tail current at 3 uM and at membrane potential of +20 mV; format: cell-based; conditions: HEK293 cells that express hERG
# hERG (KCNH2) [18] = target: T1, hERG (KCNH2); test: Inhibition of human ERG expressed in HEK293 cells assessed as reduction in tail current at 3 uM and at membrane potential of +0 mV; format: cell-based; conditions: HEK293 cells that express hERG
# Candida parapsilosis = test: Antifungal activity against Candida parapsilosis ATCC 90018 at 100 ug after 48 hrs; format: functional, organism-based
# Raoultella planticola = test: Antibacterial activity against Raoultella planticola ATCC 15050 at 100 ug after 24 hrs; format: functional, organism-based
# Plasmodium berghei [19] = test: Antiplasmodial activity against GFP-transfected Plasmodium berghei ANKA infected in NMRI mouse assessed as mean survival day at 100 mg/kg, po administered 24 hrs post infection (reference value: 3 days); format: functional
# Candida albicans = test: Antifungal activity against Candida albicans ATCC 10231 at 100 ug after 48 hrs; format: functional, organism-based
# Candida tropicalis = test: Antifungal activity against Candida tropicalis ATCC 13803 at 100 ug after 48 hrs; format: functional, organism-based
# Mus musculus = test: Toxicity in GFP-transfected Plasmodium berghei ANKA infected NMRI mouse at 200 mg/kg, po administered 24 hrs post infection; format: organism-based; parameters: dose 200 mg/kg, route oral; conditions: in vivo
# Plasmodium berghei [20] = test: Antiplasmodial activity against GFP-transfected Plasmodium berghei ANKA infected in NMRI mouse assessed as mean survival day at 100 mg/kg, po administered 4, 24, 48 and 72 hrs post infection (reference value: 4 days); format: functional
# Plasmodium berghei [21] = test: Antiplasmodial activity against GFP-transfected Plasmodium berghei ANKA infected in NMRI mouse assessed as mean survival day at 200 mg/kg, po administered 24 hrs post infection (reference value: 3 days); format: functional
# [22] = tested on: Trypanosoma brucei rhodesiense; test: Antitrypanosomal activity against Trypanosoma brucei rhodesiense STIB900 bloodstream forms after 72 hrs by alamar blue assay; format: functional, organism-based; conditions: STIB900, 72 h
# L6 = test: Cytotoxicity against rat L6 cells after 72 hrs by alamar blue assay; format: cell-based; conditions: L6, 72 h
# Escherichia coli = test: Antibacterial activity against Escherichia coli ATCC 25922 at 100 ug after 24 hrs; format: functional; conditions: ATCC 25922, 24 h, read-out: DIZ
# Leishmania sp. = test: Antiparasitic activity against Leishmania sp.; format: functional, organism-based
# Plasmodium berghei [23] = test: Antiplasmodial activity against GFP-transfected Plasmodium berghei ANKA infected in NMRI mouse assessed as reduction in parasitemia at 50 mg/kg, ip administered 4, 24, 48 and 72 hrs post infection by FACS analysis; format: functional; conditions: route intraperitoneal
# T1 sequence (Q12809 whole entry): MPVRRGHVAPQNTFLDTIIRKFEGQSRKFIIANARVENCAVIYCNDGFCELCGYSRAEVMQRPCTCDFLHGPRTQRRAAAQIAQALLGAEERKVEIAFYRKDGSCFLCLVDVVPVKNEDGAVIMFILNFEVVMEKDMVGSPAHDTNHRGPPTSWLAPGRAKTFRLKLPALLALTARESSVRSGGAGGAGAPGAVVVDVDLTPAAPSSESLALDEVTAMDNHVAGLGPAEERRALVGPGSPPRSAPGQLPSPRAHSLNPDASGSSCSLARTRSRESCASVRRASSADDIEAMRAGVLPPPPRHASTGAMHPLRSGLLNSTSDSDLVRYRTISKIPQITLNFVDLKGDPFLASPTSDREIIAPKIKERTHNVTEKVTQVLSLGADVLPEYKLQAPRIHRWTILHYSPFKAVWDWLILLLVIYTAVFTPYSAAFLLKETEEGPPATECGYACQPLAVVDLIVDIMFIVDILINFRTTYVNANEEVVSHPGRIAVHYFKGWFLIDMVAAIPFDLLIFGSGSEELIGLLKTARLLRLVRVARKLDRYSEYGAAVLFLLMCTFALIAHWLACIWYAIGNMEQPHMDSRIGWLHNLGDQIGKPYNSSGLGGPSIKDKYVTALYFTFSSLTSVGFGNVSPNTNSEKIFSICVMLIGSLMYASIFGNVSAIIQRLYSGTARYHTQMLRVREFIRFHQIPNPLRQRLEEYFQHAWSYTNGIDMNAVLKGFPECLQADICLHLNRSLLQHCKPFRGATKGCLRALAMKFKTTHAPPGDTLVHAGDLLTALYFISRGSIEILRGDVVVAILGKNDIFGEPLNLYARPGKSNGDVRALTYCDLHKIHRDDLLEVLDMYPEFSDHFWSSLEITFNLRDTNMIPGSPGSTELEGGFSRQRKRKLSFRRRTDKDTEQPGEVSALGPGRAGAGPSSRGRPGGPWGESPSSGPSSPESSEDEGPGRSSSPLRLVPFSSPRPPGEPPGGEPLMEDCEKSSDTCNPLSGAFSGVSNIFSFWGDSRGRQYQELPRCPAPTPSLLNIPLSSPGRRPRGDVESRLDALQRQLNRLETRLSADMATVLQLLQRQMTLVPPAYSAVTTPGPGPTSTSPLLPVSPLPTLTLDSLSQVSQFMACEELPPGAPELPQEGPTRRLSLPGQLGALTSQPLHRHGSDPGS
# Chain of Voltage-gated inwardly rectifying potassium channel KCNH2 (Q12809 whole entry): as above
smiles,measurement,setting,value
Cl.c1ccc(C2CC3(N4CCCC4)CNCC2C(c2ccccc2)C3)cc1 (racemic),MSD,Plasmodium berghei [1],4 days
same,Ratio IC50,[2],767.7
same,inhibition in vivo at 200 mg/kg,Plasmodium berghei [3],66.1%
same,MIC,[4],128 mg/L
same,diameter of the inhibition zone (DIZ),Bacillus subtilis,inactive
same,MSD,Plasmodium berghei [5],10 days
same,inhibition,Trypanosoma,Active
same,MSD,Plasmodium berghei [6],15 days
same,IC50,[7],2.63 µM
same,inhibition (INH),"[7]; human, hek293",Dose-dependent effect
same,inhibition,Plasmodium berghei [8],Dose-dependent effect
same,ED50,Plasmodium berghei [8]; ip,17 mg/kg
same,ED90,Plasmodium berghei [8]; ip,40 mg/kg
same,IC50,Plasmodium falciparum,0.095 µM
same,inhibition in vivo at 10 mg/kg,Plasmodium berghei [9],25.1%
same,diameter of the inhibition zone (DIZ),[10],inactive
same,diameter of the inhibition zone (DIZ),Staphylococcus aureus,inactive
same,inhibition in vivo at 100 mg/kg,Plasmodium berghei [11],70.5%
same,inhibition in vivo at 20 mg/kg,Plasmodium berghei [12],60.1%
same,zone of inhibition at 100 µg/disc,Proteus mirabilis,11 mm
same,diameter of the inhibition zone (DIZ),Enterococcus faecalis,inactive
same,zone of inhibition at 100 µg/disc,Enterococcus faecium,10 mm
same,diameter of the inhibition zone (DIZ),Klebsiella oxytoca,inactive
same,Ratio IC50,[13],72.9
same,half-life,[14],18 min
same,inhibition,Plasmodium berghei [15],Dose-dependent effect
same,ED50,Plasmodium berghei [15]; po,75 mg/kg
same,inhibition in vivo at 100 mg/kg,Plasmodium berghei [16],97.7%
same,inhibition at 3 µM,hERG (KCNH2) [17],54.8%
same,inhibition at 3 µM,hERG (KCNH2) [18],45.9%
same,diameter of the inhibition zone (DIZ),Candida parapsilosis,inactive
same,diameter of the inhibition zone (DIZ),Raoultella planticola,inactive
same,MSD,Plasmodium berghei [19],12 days
same,diameter of the inhibition zone (DIZ),Candida albicans,inactive
same,diameter of the inhibition zone (DIZ),Candida tropicalis,inactive
same,Activity,Mus musculus,Toxic
same,MSD,Plasmodium berghei [20],18.6 days
same,MSD,Plasmodium berghei [21],16 days
same,IC50,[22],1 µM
same,IC50,L6,72.9 µM
same,zone of inhibition at 100 µg/disc,Escherichia coli,10 mm
same,inhibition,Leishmania sp.,Active
same,inhibition in vivo at 50 mg/kg,Plasmodium berghei [23],94.8%
